Values after ≈ are worked out from the molar mass of the structure shown.
Legend:
Format in all cases: functional
Bacillus subtilis = test: Antibacterial activity against Bacillus subtilis after 24 hrs by MTT colorimetric method
Escherichia coli = test: Antibacterial activity against Escherichia coli after 24 hrs by MTT colorimetric method
Pseudomonas fluorescens = test: Antibacterial activity against Pseudomonas fluorescens after 24 hrs by MTT colorimetric method
Staphylococcus aureus = test: Antibacterial activity against Staphylococcus aureus after 24 hrs by MTT colorimetric method
Aspergillus niger = test: Antifungal activity against Aspergillus niger after 48 hrs by MTT colorimetric method
Candida albicans = test: Antifungal activity against Candida albicans after 48 hrs by MTT colorimetric method
Trichophyton rubrum = test: Antifungal activity against Trichophyton rubrum after 48 hrs by MTT colorimetric method

Structure (SMILES)	MIC (Bacillus subtilis) [µg/mL]	MIC (Escherichia coli) [µg/mL]	MIC (Pseudomonas fluorescens) [µg/mL]	MIC (Staphylococcus aureus) [µg/mL]	MIC (Aspergillus niger) [µg/mL]	MIC (Candida albicans) [µg/mL]	MIC (Trichophyton rubrum) [µg/mL]
CCOC(=O)N1CCC(/N=C/c2cc(Cl)ccc2O)CC1	> 50	> 50	> 50	> 50	> 50	> 50	> 50
CC1(C)CC(/N=C/c2cc(Cl)ccc2O)CC(C)(C)N1	> 50	> 50	40.5 (≈ 137 µM)	> 50	> 50	> 50	> 50
Oc1ccc(Cl)cc1/C=N/CCN1CCNCC1	> 50	> 50	> 50	22.5 (≈ 84 µM)	> 50	> 50	> 50
Oc1ccc(Cl)cc1/C=N/CCCN1CCOCC1	> 50	> 50	> 50	18.5 (≈ 65.4 µM)	> 50	> 50	> 50
O=[N+]([O-])c1ccc(/N=C/c2cc(Cl)ccc2O)cc1	> 50	> 50	> 50	18.5 (≈ 66.9 µM)	> 50	> 50	> 50
Oc1ccc(Cl)cc1/C=N/C1CCN(Cc2ccccc2)CC1	> 50	> 50	> 50	> 50	> 50	> 50	> 50
Oc1ccc(Cl)cc1/C=N/CC/N=C/c1cc(Cl)ccc1O	> 50	> 50	2.8 (≈ 8.3 µM)	> 50	> 50	> 50	> 50
CC1(/N=C/c2cc(Cl)ccc2O)CCC(C(C)(C)/N=C/c2cc(Cl)ccc2O)CC1 (stereo unspecified)	> 50	> 50	> 50	> 50	> 50	> 50	> 50
CCN(CC)CCC/N=C/c1cc(Cl)ccc1O	> 50	> 50	> 50	> 50	> 50	> 50	> 50
Oc1ccc(Cl)cc1/C=N/Cc1cccnc1	> 50	> 50	12.5 (≈ 50.7 µM)	19.5 (≈ 79 µM)	> 50	> 50	> 50
NC[C@H]1O[C@H](O[C@H]2[C@H](O)[C@@H](O[C@H]3O[C@H](CO)[C@@H](O)[C@H](N)[C@H]3O)[C@H](N)C[C@@H]2N)[C@H](O)[C@@H](O)[C@@H]1O [KANAMYCIN]	0.39 (≈ 0.805 µM)	3.9 (≈ 8.05 µM)	3.9 (≈ 8.05 µM)	1 (≈ 2.06 µM)	> 50	> 50	> 50
CC(=O)N1CCN(c2ccc(OC[C@H]3CO[C@](Cn4ccnc4)(c4ccc(Cl)cc4Cl)O3)cc2)CC1 [KETOCONAZOLE]	> 50	> 50	> 50	> 50	7.8 (≈ 14.7 µM)	3.9 (≈ 7.34 µM)	3.9 (≈ 7.34 µM)

Second part, the compound after the results:

MIC (Bacillus subtilis) [µg/mL]	MIC (Escherichia coli) [µg/mL]	MIC (Pseudomonas fluorescens) [µg/mL]	MIC (Staphylococcus aureus) [µg/mL]	MIC (Aspergillus niger) [µg/mL]	MIC (Candida albicans) [µg/mL]	MIC (Trichophyton rubrum) [µg/mL]	Structure (SMILES)
> 50	48.6 (≈ 204 µM)	12.5 (≈ 52.6 µM)	25 (≈ 105 µM)	> 50	> 50	> 50	Oc1ccc(Cl)cc1/C=N/C1CCCCC1
> 50	4.1 (≈ 18.3 µM)	3.4 (≈ 15.2 µM)	> 50	> 50	> 50	> 50	Oc1ccc(Cl)cc1/C=N/C1CCCC1
48.5 (≈ 176 µM)	> 50	3.1 (≈ 11.2 µM)	1.8 (≈ 6.53 µM)	> 50	> 50	> 50	Oc1ccc(CC/N=C/c2cc(Cl)ccc2O)cc1
49.8 (≈ 211 µM)	5.7 (≈ 24.2 µM)	5.2 (≈ 22.1 µM)	> 50	> 50	> 50	> 50	Oc1ccc(Cl)cc1/C=N/Cc1ccco1
> 50	> 50	> 50	15.5 (≈ 77.6 µM)	> 50	12.5 (≈ 62.6 µM)	> 50	OCC/N=C/c1cc(Cl)ccc1O
1.8 (≈ 5.12 µM)	4.9 (≈ 14 µM)	3.6 (≈ 10.2 µM)	> 50	> 50	> 50	> 50	CC(C/N=C/c1cc(Cl)ccc1O)/N=C/c1cc(Cl)ccc1O (stereo unspecified)
> 50	> 50	> 50	> 50	> 50	> 50	> 50	CN(C)CCC/N=C/c1cc(Cl)ccc1O
> 50	3.1 (≈ 12.6 µM)	3.2 (≈ 13 µM)	> 50	> 50	> 50	> 50	Oc1ccc(Cl)cc1/C=N/Cc1ccccc1
45.2 (≈ 171 µM)	1.6 (≈ 6.07 µM)	2.8 (≈ 10.6 µM)	3.4 (≈ 12.9 µM)	47.5 (≈ 180 µM)	> 50	> 50	Oc1ccc(Cl)cc1/C=N/Cc1ccc(F)cc1
> 50	> 50	> 50	> 50	> 50	> 50	> 50	CN(CCC/N=C/c1cc(Cl)ccc1O)CCC/N=C/c1cc(Cl)ccc1O
> 50	> 50	> 50	> 50	> 50	> 50	> 50	Oc1ccc(Cl)cc1/C=N/CCCCCC/N=C/c1cc(Cl)ccc1O
> 50	> 50	> 50	> 50	> 50	> 50	> 50	Oc1ccc(Cl)cc1/C=N/CC1CCCCC1
> 50	> 50	> 50	> 50	> 50	> 50	> 50	Oc1ccc(Cl)cc1/C=N/CC1CCCC(C/N=C/c2cc(Cl)ccc2O)C1 (stereo unspecified)
> 50	> 50	32.5 (≈ 85.5 µM)	> 50	> 50	> 50	> 50	Oc1ccc(Cl)cc1/C=N/CCNCC/N=C/c1cc(Cl)ccc1O
> 50	5 (≈ 14.2 µM)	4.5 (≈ 12.8 µM)	> 50	> 50	> 50	> 50	Oc1ccc(Cl)cc1/C=N/CCC/N=C/c1cc(Cl)ccc1O
> 50	3.5 (≈ 13 µM)	2.5 (≈ 9.3 µM)	> 50	> 50	> 50	> 50	Oc1ccc(Cl)cc1/C=N/CCN1CCOCC1
